Experimental findings from ChEMBL document CHEMBL4699474, “Dimeric Tetrahydroanthracene Regioisomers and Their Monomeric Precursor Produced by Streptomyces fumigatiscleroticus HDN10255” (J Nat Prod, 2020) are described below.

Each structure is given as a SMILES string. pIC50: −log10 of the molar value. Where a name gives a salt, the structure may show the parent alone.

What all share (format): functional, cell-based
For assay [1], the system named is HCT-116. Briefly: Cytotoxicity against human HCT-116 cells assessed as reduction in cell viability after 48 hrs by SRB assay. The following applies: HCT-116, 48 h.
In assay [2] the test system is HL-60. Put plainly: Cytotoxicity against human HL-60 cells assessed as reduction in cell viability after 48 hrs by MTT assay. The following applies: HL-60, 48 h. Background: Tetrazolium assays rely on reduction of a dye to a coloured formazan, in cell work by metabolically active cells.
The subject of assay [3] is HeLa. Put plainly: Cytotoxicity against human HeLa cells assessed as reduction in cell viability after 48 hrs by SRB assay. (In SRB staining, fixed cells bind dye roughly in proportion to their protein.)
Assay [4] has as its system K562. Put plainly: Cytotoxicity against human K562 cells assessed as reduction in cell viability after 48 hrs by MTT assay. The following applies: K562, 48 h.

Broadly, the pIC50 is −log10 of the IC50, conventionally taken in molar units. On to `CC(=O)[C@H]1c2c(c(O)c3c(O)cccc3c2-c2c3c(c(O)c4c(O)cccc24)C(=O)C[C@](C)(O)[C@H]3C(C)=O)C(=O)C[C@]1(C)O`, for which the pIC50 in assay [1] is under 5.00; in assay [2], under 5.00; in assay [3], 5.74; in assay [4] it was 5.29.
Turning to `CC(=O)[C@H]1c2cc3c(-c4c5c(c(O)c6c(O)cccc46)C(=O)C[C@](C)(O)[C@H]5C(C)=O)ccc(O)c3c(O)c2C(=O)C[C@]1(C)O`, the pIC50 is under 5.00 in assay [1], 5.21 in assay [2], 5.29 in assay [3] and 5.00 in assay [4].
`CC(=O)[C@H]1c2cc3ccc(-c4c5c(c(O)c6c(O)cccc46)C(=O)C[C@](C)(O)[C@H]5C(C)=O)c(O)c3c(O)c2C(=O)C[C@]1(C)O`: the pIC50 in assay [1], in assay [2], in assay [3] and in assay [4] was under 5.00 in each case.
As to `COc1cccc2c1C(=O)c1c(O)c3c(c(O)c1C2=O)C[C@@](O)(C(=O)CO)C[C@@H]3O[C@H]1C[C@H](N)[C@H](O)[C@H](C)O1` [DOXORUBICIN HYDROCHLORIDE], in assay [4], the pIC50 is 6.70.
With `CC(=O)[C@H]1c2cc3c(-c4ccc(O)c5c(O)c6c(cc45)[C@H](C(C)=O)[C@@](C)(O)CC6=O)ccc(O)c3c(O)c2C(=O)C[C@]1(C)O`, the pIC50 in assay [1], in assay [2], in assay [3] and in assay [4] was under 5.00 each time.
With `CC(=O)[C@H]1c2cc3cccc(O)c3c(O)c2C(=O)C[C@]1(C)O`, the pIC50 in assay [1], in assay [2], in assay [3] and in assay [4] was under 5.00 throughout.
